Data published in patent US20120114596A1, “TSLP PROMOTES IMMUNE EVASION AND PERSISTENCE OF VIRUSES” (priority 2009, published 2012).
“Also recorded” adds a separate entry of the source.

Assays:
DCs [1] = assay: DC polarization / cytoskeleton architecture by epifluorescence microscopy; type: cell-based, human
CD11c+ DCs = type: cell-based, human
DCs [2] = assay: DC motility in micro-channel system (confined environment); type: cell-based, human
Excerpt: A tissue represents a confined environment for cell migration (Irimia et al., Lab Chip, 2007, 7, 1783-1790). Cells may be “trapped” in narrow spaces, being forced to pass through areas of diverse densities. In order to mimic such in vivo situation, a micro-channel system was used. This system allows quantifying diverse parameters to define the cell movement and to restrain the direction of the mobile cells.
The microfluidic device was fabricated in PDMS (Whitesides G. M., E., O., Takayama S., X., J. & E, I. D. Ann Rev Biomed Eng, 2001 3, 335). The PDMS piece, with embedded microchannels and holes for the inlet and outlet ports, and a glass Iwaki chamber (Milian) were activated in a plasma cleaner (PDC-32G Harrick) and bonded to each other. The chambers were left under strong vacuum for 5 min in the plasma cleaner and plasma was turned on to render the top surface of the PDMS and the inlet and outlet holes hydrophilic. Fibronectin solution at 50 μg/ml was placed on top of the inlet and outlet ports. The solution spontaneously invaded the channels and all air bubbles were resorbed into the PDMS due to the previous vacuum treatment. Fibronectin was incubated for 1 h at room temperature, then washed with PBS then replaced by cell culture medium. The cells were concentrated and micropipette tips containing the cells were inserted in the inlet port. Cells fell inside the port, bound to the bottom coverslip and started migrating. They entered the channels spontaneously, without any mechanical or chemical stimulation.
Phase contrast […], using an automated microscope (Nikon ECLIPSE TE1000-E, and Olympus X71, with a Marzhauser motorized stage and an HQ2 Roper camera) equipped with an environmental chamber for temperature, humidity and CO2 (Life Imaging Services). Cells remained alive and motile during the entire period of recording.
To analyse the importance of myosin II in DCs migration, cells were pre-treated with […] blebbistatin and then concentrated and inserted in the microchannels.

TSLP expression = conditions: cited from earlier work
DCs [3] = assay: DC activation by surface expression of CD40, CD80, CD86, OX40L
naive CD4+ T cells = assay: Priming of naive CD4+ T cells by activated DCs, T cell cytokine profile; type: cell-based, human; conditions: DC:T 1:5, 5-6 days, re-stimulation
Experimental: After 24 h of culture, stimulated CD11c^+ DCs were collected, washed, and co-cultured with allogenic naïve CD4^+ T cells in round-bottomed plates 96-well culture plates (Falcon) at a 1:5 DC: T cell ratio in Yssel's medium (kind gift of Hans Yssel) containing 10% FCS (Hyclone). Peripheral blood naïve CD4^+ T cells were isolated by using CD4 T cell isolation kit II (Miltenyi Biotec) followed by staining for CD45RO-FITC, CD45RA-PE, CD4-APC, and cell sorting of CD45RA^+, CD4^+, CD45RO^− cells (purity>99%) with a FACSAria (BD Bioscience). Standard Th subsets were generated in presence of Dynabeads CD3/CD28 T cell expander (1 bead per cell) (Invitrogen) and 10 ng/ml IL-12 (R&D Systems) for Th1, 25 ng/ml IL-4 (R&D Systems) for Th2 and in absence of any polarizing cytokine for Th0.
After 5-6 days, cells were harvested, extensively washed and viability was determined by trypan blue exclusion. […] Cytokines in culture supernatants were measured by cytometric bead assay (CBA) Flex Sets (BD Bioscience) according to the manufacturer's instruction. IFN-γ-, IL-4-, IL-10-, TNF-producing cells were analysed by intracellular cytokine staining after addition of 10 μg/ml Brefeldin during the last 3 h of re-stimulation. […] Cells were stained with anti-IFN-γ FITC, anti-IL-4 PE, anti-IL-10 PE, anti-TNF PE (BD Pharmingen) washed and then analysed by flow cytometry (FACScan Becton Dickinson).

Langerhans cells (LC) = assay: Epidermal explant model of LC emigration; type: cell-based, human; conditions: FIGS. 2B and C
Excerpt: Next, epidermal explants were used as a global model to study the emigration of LC.

Cc1ccc2c(c1)C(=O)C1(O)CCN(c3ccccc3)C1=N2 (centres unmarked) [blebbistatin, reference compound]
morphology of TSLP-DCs under myosin II inhibition (DCs [1]; TSLP with 20 nM blebbistatin, 12 h): extremely elongated cellular shape
blebbistatin dose inhibiting TSLP-induced DC migration (CD11c+ DCs): 20 nM
effect on TSLP-induced DC entry into micro-channels (DCs [2]; blebbistatin 50 nM pre-culture): significantly inhibited

c1ccc2ncncc2c1 [quinazoline]
regulation of TSLP expression (TSLP expression): negative regulators of TSLP expression

CC1=C(/C=C/C(C)=C\C=C\C(C)=C\C(=O)O)C(C)(C)CCC1 [9-cis-retinoic acid]
regulation of TSLP expression (TSLP expression): negative regulators of TSLP expression

TSLP: cytokine of the IL-7 family produced by epithelial cells; recombinant from R&D Systems
DC activation based on surface CD40, CD80 and CD86 (DCs [3]; 24 h of culture): strong up-regulation
surface OX40-ligand (OX40L) expression on DC (DCs [3]; 48 h of culture): up-regulation
DC polarization (actin cytoskeleton morphology) (DCs [1]): extremely polarized
DC migration in transwell (CD11c+ DCs): highly efficient for migration
time after TSLP exposure at which migration started (CD11c+ DCs): 3 h
increase in capacity of DCs to enter micro-channels vs control medium (DCs [2]; 3 h time-lapse, n=3): 4 fold
median velocity of DC in micro-channels vs medium (DCs [2]; DC pre-cultured in medium or TSLP): no significant difference
T cell cytokine profile induced by activated DC (naive CD4+ T cells): Th2 profile
migration of CD1a+ Langerin+ TSLP-receptor+ CD80+ cells from epidermal explants (Langerhans cells (LC)): significantly increased; also recorded: more efficient than TNFa
